Reference: patent US20260284042A1, “DOSING REGIMEN” (ViiV Healthcare UK (No.3) Limited, priority 2024, published 2026)
Where two headings read alike, the source gives them in different places.

Tests used:
[1] = Cabotegravir population pharmacokinetic (PopPK) model, CAB 200 mg/mL IM injections; parameters: species or system human
Protocol: In a first set of simulations, a cabotegravir population pharmacokinetic (PopPK) model was built based on PK data following cabotegravir (CAB) 200 mg/mL intramuscular (IM) injections collected in 16 historical studies (Population pharmacokinetics of cabotegravir following administration of oral tablet and long-acting intramuscular injection in adult HIV-1-infected and uninfected subjects. Han K, Baker M, Lovern M, Paul P, Xiong Y, Patel P, Moore K P, Seal C S, Cutrell A G, D'Amico R D, Benn P D, Landovitz R J, Marzinke M A, Spreen W R, Ford S L. Br J Clin Pharmacol. 2022 October;88 (10): 4607-4622. doi: 10.1111/bcp. 15439. Epub 2022 Jul. 4. PMID: 35695476) and updated based on PK data from 19 studies: LAI116585, LAI117010, LAI117011, LAI117020, 201741, 201479, 201480, 205696, LAI116482 (LATTE), LAI115428, LAI116815, 200056 (LATTE-2), 201120 (ECLAIR), 201103 (HPTN077), 201584 (FLAIR), 201585 (ATLAS), 207966 (ATLAS-2M), 201738 (HPTN 083) and 201739 (HPTN 084). A total of 34,850 CAB plasma concentrations collected at various time points from 2,694 participants were used to build this PopPK model.

HIV-1 strains = conditions: integrase strand transfer inhibitor; antiviral activity against a broad range of HIV-1 strains; cited from earlier work
[2] = cited from earlier work

SMILES: C[C@H]1CO[C@@H]2Cn3cc(C(=O)NCc4ccc(F)cc4F)c(=O)c(O)c3C(=O)N12 [Cabotegravir, (3S, 11aR)-N-((2,4-difluorophenyl)methyl)-6-hydroxy-3-methyl-5,7-dioxo-2,3,5,7,11,11a-hexahydro (1,3) oxazolo (3,2-a)pyrido (1,2-d) pyrazine-8-carboxamide]
- Apparent central clearance (CL/F), higher in current smokers [1]: 16.4%
- KA2 versus BMI [1]: decreased with increasing BMI
- KA2 versus needle length [1]: lower with longer needle length
- Long-acting intramuscular gluteal absorption rate constant (KA2), lower in people assigned female at birth than male at birth ([1]; CAB 200 mg/mL IM injections): 46.5%
- KA2, higher in study 201120 (ECLAIR) than other studies ([1]; after adjusting for all covariates): 22.8%
- KA2 versus split injections ([1]; people assigned female at birth): not associated with split injections
- KA2, higher if the injection was split ([1]; people assigned male at birth): 50.8%
- potency (HIV-1 strains): subnanomolar
- 10th percentile of Ctau observed ([2]; Phase 3 study 201738 (HPTN 083), people assigned male at birth): 1.05 µg/mL
- 10th percentile of Ctau observed ([2]; Phase 3 study 201739 (HPTN 084), people assigned female at birth): 1.39 µg/mL
